According to patent publication US20070275967A1, “Pyrazolinols” (BAYER CROPSCIENCE AKTIENGESELLSCHAFT, priority 2003, published 2007):
One block for each compound: values may come before it.

Key:
[1] = logP determination by HPLC on reversed-phase column (EEC Directive 79/831 Annex V.A8); format: physicochemical; settings: acidic range (pH 2.3), marked a), 0.1% aqueous phosphoric acid/acetonitrile gradient, reversed-phase C 18, 43° C.; for chromatographic logP: reversed-phase C18 HPLC column
Protocol: The logP values given in the table were determined in accordance with EEC Directive 79/831 Annex V.A8 by HPLC (High Performance Liquid Chromatography) on a reversed-phase column (C 18). Temperature: 43° C. (a) Mobile phases for the determination in the acidic range (pH 2.3): 0.1% aqueous phosphoric acid, acetonitrile; linear gradient from 10% acetonitrile to 90% acetonitrile—the corresponding measurement results in table 1 are marked a). (b) Mobile phases for the determination in the neutral range (pH 7.5): 0.01-molar aqueous phosphate buffer solution, acetonitrile; linear gradient from 10% acetonitrile to 90% acetonitrile—the corresponding measurement results in table 1 are marked b). Calibration was carried out using unbranched alkan-2-ones (having 3 to 16 carbon atoms) with known logP values (determination of the logP values by the retention times using linear interpolation between two successive alkanones).

[2] = system: greenhouse red spidermite (Tetranychus urticae); assay: Tetranychus test (OP-resistant/spray treatment); format: in vivo; settings: for pest or weed control at 500 g/ha / pest or weed control at 100 g/ha: Tetranychus urticae, 120 h, after 5 d, OP-resistant, spray treatment, read-out: Kill rate in % after 5 d; for pest or weed control at 500 g/ha: active compound concentration 500 g/ha; for activity (kill of spidermites): bean leaf disks infested by all stages of Tetranychus urticae (OP-resistant), sprayed, result in words; for pest or weed control at 100 g/ha: active compound concentration 100 g/ha
Protocol: Tetranychus Test (OP-Resistant/Spray Treatment)
To produce a suitable preparation of active compound, 1 part by weight of active compound is mixed with the stated amounts of solvents and emulsifier, and the concentrate is diluted with emulsifier-containing water to the desired concentration.
Disks of bean leaves (Phaseolus vulgaris) which are infested by all stages of the greenhouse red spidermite (Tetranychus urticae) are sprayed with a preparation of active compound of the desired concentration.
After the desired period of time, the activity in % is determined. 100% means that all spidermites have been killed; 0% means that none of the spidermites have been killed.

[3] = system: larvae of the mustard beetle (Phaedon cochleariae); assay: Phaedon test (spray treatment); format: in vivo; settings: for activity (kill of beetle larvae): Chinese cabbage disks sprayed, populated with Phaedon cochleariae larvae, result in words; for pest or weed control at 500 g/ha / pest or weed control at 100 g/ha: Phaedon cochleariae, 168 h, after 7 d, spray treatment, read-out: Kill rate in % after 7 d; for pest or weed control at 500 g/ha: active compound concentration 500 g/ha; for pest or weed control at 100 g/ha: active compound concentration 100 g/ha
Protocol: Phaedon Test (Spray Treatment) [table] To produce a suitable preparation of active compound, 1 part by weight of active compound is mixed with the stated amounts of solvents and emulsifier, and the concentrate is diluted with emulsifier-containing water to the desired concentration. Disks of Chinese cabbage (Brassica pekinensis) are sprayed with a preparation of active compound of the desired concentration and, once they have dried, populated with larvae of the mustard beetle (Phaedon cochleariae). After the desired period of time, the activity in % is determined. 100% means that all beetle larvae have been killed; 0% means that none of the beetle larvae have been killed.

[4] = system: caterpillars of the armyworm (Spodoptera frugiperda); assay: Spodoptera frugiperda test (spray treatment); format: in vivo; settings: for pest or weed control at 500 g/ha / pest or weed control at 100 g/ha: Spodoptera frugiperda, 168 h, after 7 d, spray treatment, read-out: Kill rate in % after 7 d; for pest or weed control at 500 g/ha: active compound concentration 500 g/ha; for activity (kill of caterpillars): corn leaf disks sprayed, populated with Spodoptera frugiperda caterpillars, result in words; for pest or weed control at 100 g/ha: active compound concentration 100 g/ha
Protocol: Spodoptera Frugiperda Test (Spray Treatment) [table] To produce a suitable preparation of active compound, 1 part by weight of active compound is mixed with, the stated amounts of solvents and emulsifier, and the concentrate is diluted with emulsifier-containing water to the desired concentration. Disks of corn leaves (Zea mays) are sprayed with a preparation of active compound of the desired concentration and, after they have dried, populated with caterpillars of the armyworm (Spodoptera frugiperda). After the desired period of time, the activity in % is determined. 100% means that all caterpillars have been killed; 0% means that none of the caterpillars have been killed.

SMILES: CC(C)CC1=NN(C(=S)Nc2ccc(OC(F)(F)F)cc2)C(O)(C(F)(F)F)C1 (stereo not drawn) [Example 22]
chromatographic logP [1]: 4.42
pest or weed control at 500 g/ha [2]: 90%
activity (kill of spidermites) [2]: good activity

SMILES: COc1ccccc1NC(=S)N1N=C(C(C)C)CC1(O)C(F)(F)F (stereo not drawn) [Example 30]
activity (kill of beetle larvae) [3]: good activity
pest or weed control at 500 g/ha [3]: 100%
chromatographic logP [1]: 4.23
pest or weed control at 500 g/ha [2]: 90%
activity (kill of spidermites) [2]: good activity

SMILES: Cc1ccccc1NC(=S)N1N=C(C(C)C)CC1(O)C(F)(F)F (stereo not drawn) [Example 32]
activity (kill of beetle larvae) [3]: good activity
pest or weed control at 500 g/ha [3]: 100%
chromatographic logP [1]: 4.1
pest or weed control at 500 g/ha [4]: 100%
activity (kill of caterpillars) [4]: good activity

SMILES: CC(C)C1=NN(C(=S)NC2CCCCC2)C(O)(C(F)(F)F)C1 (stereo not drawn) [Example 44]
activity (kill of beetle larvae) [3]: good activity
pest or weed control at 500 g/ha [3]: 100%
chromatographic logP [1]: 4.94
pest or weed control at 500 g/ha [4]: 100%
activity (kill of caterpillars) [4]: good activity
pest or weed control at 500 g/ha [2]: 90%
activity (kill of spidermites) [2]: good activity

SMILES: CCC1=NN(C(=S)Nc2ccc(Cl)cc2)C(O)(C(F)(F)F)C1 (stereo not drawn) [Example 53]
activity (kill of beetle larvae) [3]: good activity
pest or weed control at 500 g/ha [3]: 100%
chromatographic logP [1]: 4.07

SMILES: CCC1=NN(C(=S)NCc2ccccc2Cl)C(O)(C(F)(F)F)C1 (stereo not drawn) [Example 56]
activity (kill of beetle larvae) [3]: good activity
pest or weed control at 500 g/ha [3]: 100%
chromatographic logP [1]: 4.25
pest or weed control at 100 g/ha [2]: 90%
activity (kill of spidermites) [2]: good activity

SMILES: CC(C)(C)C1=NN(C(=S)Nc2ccccc2)C(O)(C(F)(F)F)C1 (stereo not drawn) [Example 63]
activity (kill of beetle larvae) [3]: good activity
pest or weed control at 100 g/ha [3]: 100%
chromatographic logP [1]: 4.26
pest or weed control at 100 g/ha [4]: 100%
activity (kill of caterpillars) [4]: good activity

SMILES: CC(C)(C)C1=NN(C(=S)Nc2ccc(OC(F)(F)F)cc2)C(O)(C(F)(F)F)C1 (stereo not drawn) [Example 64]
activity (kill of beetle larvae) [3]: good activity
pest or weed control at 100 g/ha [3]: 100%
chromatographic logP [1]: 4.94
pest or weed control at 100 g/ha [4]: 100%
activity (kill of caterpillars) [4]: good activity

SMILES: CC(C)(C)C1=NN(C(=S)NC2CCCCC2)C(O)(C(F)(F)F)C1 (stereo not drawn) [Example 73]
activity (kill of beetle larvae) [3]: good activity
pest or weed control at 100 g/ha [3]: 100%
pest or weed control at 100 g/ha [4]: 100%
activity (kill of caterpillars) [4]: good activity

SMILES: OC1(C(F)(F)F)CC(c2ccccc2)=NN1C(=S)Nc1ccc(Cl)cc1 (stereo not drawn) [Example 83]
chromatographic logP [1]: 4.58
pest or weed control at 500 g/ha [4]: 100%
activity (kill of caterpillars) [4]: good activity

SMILES: CCC1=NN(C(=S)Nc2cccc(F)c2)C(O)(C(F)(F)F)C1 (stereo not drawn) [Example 94]
logP [1]: logP = 3.71^a)

SMILES: CCC1=NN(C(=S)Nc2ccc(OC(F)(F)F)cc2)C(O)(C(F)(F)F)C1 (stereo not drawn) [Example 95]
logP [1]: logP = 4.31^a)

SMILES: CCC1=NN(C(=S)Nc2ccccc2F)C(O)(C(F)(F)F)C1 (stereo not drawn) [Example 98]
logP [1]: logP = 3.51^a)

SMILES: CCC1=NN(C(=S)Nc2ccc(C(C)(C)C)cc2)C(O)(C(F)(F)F)C1 (stereo not drawn) [Example 99]
logP [1]: logP = 4.85^a)

SMILES: CC1=NN(C(=S)Nc2ccc(Oc3ccccc3)cc2)C(O)(C(F)(F)F)C1 (stereo not drawn) [Example 104]
logP [1]: logP = 4.15^a)

SMILES: CC1=NN(C(=S)Nc2c(F)cc(F)cc2F)C(O)(C(F)(F)F)C1 (stereo not drawn) [Example 105]
logP [1]: logP = 3.12^a)

SMILES: CC(C)(C)C1=NN(C(=S)Nc2ccc(Cl)cc2)C(O)(C(Cl)(Cl)Cl)C1 (stereo not drawn) [Example 129]
logP [1]: logP = 4.03^a)

SMILES: CC(C)(C)C1=NN(C(=S)NCc2ccc(Cl)cc2)C(O)(C(Cl)(Cl)Cl)C1 (stereo not drawn) [Example 130]
logP [1]: logP = 2.72^a)

SMILES: CC(C)(C)C1=NN(C(=S)NCc2ccc(Cl)cc2)C(O)(C(F)(F)C(F)(F)F)C1 (stereo not drawn) [Example 132]
logP [1]: logP = 5.32^a)

SMILES: CC(C)(C)C1=NN(C(=O)Nc2ccc(Cl)cc2)C(O)(C(F)(F)C(F)(F)F)C1 (stereo not drawn) [Example 134]
logP [1]: logP = 4.77^a)

SMILES: CC(C)(C)C1=NN(C(=S)Nc2ccc(Cl)cc2)C(O)(C(F)(F)C(F)(F)F)C1 (stereo not drawn) [Example 135]
logP [1]: logP = 5.19^a)

SMILES: CC(C)(C)C1=NN(C(=S)Nc2ccc(Cl)cc2)C(O)(C(F)(F)C(F)(F)C(F)(F)F)C1 (stereo not drawn) [Example 138]
logP [1]: logP = 5.57^a)

SMILES: CC(C)(C)C1=NN(C(=O)Nc2ccc(Cl)cc2)C(O)(C(F)(F)C(F)(F)C(F)(F)F)C1 (stereo not drawn) [Example 140]
logP [1]: logP = 5.20^a)

SMILES: CC(C)(C)C1=NN(C(=S)Nc2ccc(Cl)cc2)C(O)(C(F)F)C1 (stereo not drawn) [Example 142]
logP [1]: logP = 4.50^a)

SMILES: CC(C)(C)C1=NN(C(=O)Nc2ccc(Cl)cc2)C(O)(C(F)F)C1 (stereo not drawn) [Example 144]
logP [1]: logP = 3.72^a)

The next lines start with results.

logP [1]: logP = 4.61^a)
SMILES: CCC1=NN(C(=S)Nc2ccc(Cl)c(Cl)c2)C(O)(C(F)(F)F)C1 (stereo not drawn) [Example 96]

logP [1]: logP = 4.34^a)
SMILES: CCC1=NN(C(=O)NCc2ccc(Cl)c(Cl)c2)C(O)(C(F)(F)F)C1 (stereo not drawn) [Example 97]

logP [1]: logP = 3.10^a)
SMILES: COc1ccc(NC(=S)N2N=C(C)CC2(O)C(F)(F)F)cc1 (stereo not drawn) [Example 102]

logP [1]: logP = 3.75^a)
SMILES: CC1=NN(C(=S)Nc2cccc(Cl)c2Cl)C(O)(C(F)(F)F)C1 (stereo not drawn) [Example 103]

chromatographic logP [1]: 3.37
SMILES: CC1=NN(C(=S)Nc2ccc(OC(F)(F)F)cc2)C(O)(C(F)(F)F)C1 (stereo not drawn) [Example 106]
pest or weed control at 100 g/ha [2]: 100%
activity (kill of spidermites) [2]: good activity

logP [1]: logP = 3.94^a)
SMILES: CC1=NN(C(=S)Nc2cc(C(F)(F)F)ccc2Cl)C(O)(C(F)(F)F)C1 (stereo not drawn) [Example 107]

logP [1]: logP = 3.36^a)
SMILES: COc1ccccc1NC(=S)N1N=C(C)CC1(O)C(F)(F)F (stereo not drawn) [Example 108]

logP [1]: logP = 4.18^a)
SMILES: CC1=NN(C(=S)Nc2cc(Cl)cc(Cl)c2)C(O)(C(F)(F)F)C1 (stereo not drawn) [Example 109]

logP [1]: logP = 2.06^a)
SMILES: CC1=NN(C(=S)Nc2ccc(F)cc2)C(O)(C(F)(F)F)C1 (stereo not drawn) [Example 110]

logP [1]: logP = 3.18^a)
SMILES: CC1=NN(C(=S)Nc2cccc(F)c2)C(O)(C(F)(F)F)C1 (stereo not drawn) [Example 111]

logP [1]: logP = 3.89^a)
SMILES: CC1=NN(C(=S)Nc2ccc(OC(F)(F)F)cc2)C(O)(C(F)(F)F)C1 (stereo not drawn) [Example 112]

logP [1]: logP = 4.26^a)
SMILES: CC1=NN(C(=S)NCc2ccc(Cl)c(Cl)c2)C(O)(C(F)(F)F)C1 (stereo not drawn) [Example 113]

logP [1]: logP = 3.84^a)
SMILES: CC1=NN(C(=O)Nc2ccc(Cl)c(Cl)c2)C(O)(C(F)(F)F)C1 (stereo not drawn) [Example 116]

logP [1]: logP = 2.70^a)
SMILES: CC1=NN(C(=O)Nc2ccc(F)cc2)C(O)(C(F)(F)F)C1 (stereo not drawn) [Example 117]

chromatographic logP [1]: 3.97
SMILES: CC1=NN(C(=S)Nc2ccc(Cl)cc2Cl)C(O)(C(F)(F)F)C1 (stereo not drawn) [Example 118]
pest or weed control at 100 g/ha [2]: 90%
activity (kill of spidermites) [2]: good activity

logP [1]: logP = 3.49^a)
SMILES: CC1=NN(C(=S)Nc2ccc(C)cc2)C(O)(C(F)(F)F)C1 (stereo not drawn) [Example 119]

logP [1]: logP = 3.05^a)
SMILES: CC1=NN(C(=S)Nc2ccccc2F)C(O)(C(F)(F)F)C1 (stereo not drawn) [Example 120]

logP [1]: logP = 4.45^a)
SMILES: CC1=NN(C(=S)Nc2ccc(C(C)(C)C)cc2)C(O)(C(F)(F)F)C1 (stereo not drawn) [Example 121]

logP [1]: logP = 3.53^a)
SMILES: CC1=NN(C(=S)NCc2ccccc2F)C(O)(C(F)(F)F)C1 (stereo not drawn) [Example 124]

logP [1]: logP = 3.87^a)
SMILES: CC1=NN(C(=S)NCc2ccccc2Cl)C(O)(C(F)(F)F)C1 (stereo not drawn) [Example 125]

chromatographic logP [1]: 4.24
SMILES: CC1=NN(C(=S)NCCc2ccc(Cl)cc2)C(O)(C(F)(F)F)C1 (stereo not drawn) [Example 126]
pest or weed control at 100 g/ha [2]: 90%
activity (kill of spidermites) [2]: good activity
